Literature values, collected in patent publication US20020142346A1, “Binding compounds and methods for identifying binding compounds” (priority 2000, published 2002).
pKd: −log10 of the molar value.

Experiments:
Src = conditions: binding domain Src; preferred peptide
SH2 (src) = target: T1, SH2 (src) (Homo sapiens, UniProt P12931); conditions: binding domain SH2 (src); preferred peptide
T1 construct: SH2 (src)

pKd (SH2 (src)) | Substance | pKd (Src)
 | EPQpYEEIPIYLK | 7.10
7.00 | PYEEIY | 
